In PMC9452909, “Monomethylsulochrin isolated from biomass extract of Aspergillus sp. against Leishmania amazonensis: In vitro biological evaluation and molecular docking” (Frontiers in Cellular and Infection Microbiology, 2022):
Values after ≈ are worked out from the molar mass of the structure shown. Where two headings read alike, the source gives them in different places.

Columns and labels:
[1] = test system: L. mexicana promastigote forms; design: method as in Hay et al. (2008); conditions: ref Hay et al. (2008); cited from earlier work
[2] = test system: L. infantum promastigote forms; design: method as in Hay et al. (2008); conditions: ref Hay et al. (2008); cited from earlier work
[3] = test system: L. infantum intracellular amastigote forms; design: method as in Hay et al. (2008); conditions: ref Hay et al. (2008); cited from earlier work
[4] = test system: L. amazonensis promastigote; assay: Antileishmanial activity assay, promastigote forms (live parasite counting); type: cell-based, Leishmania amazonensis; conditions: 24 h; for IC50: Leishmania amazonensis, mean ± SD
Method: Promastigote forms of L. amazonensis H21 (MHOM/BR/76/MA-76) were cultured at 26°C in Schneider’s insect medium. The culture was supplemented with 10% FBS, 100 IU/ml of penicillin, and 100 µg/ml of streptomycin in a maximum of 10 in vitro passages ([Almeida-Souza et al., 2016]).
In 96-well plates, the promastigote forms of L. amazonensis (10^6 parasites/ml) from a 3- to 5-day-old culture were incubated for 24 h in the presence of different concentrations of pseurotin A at 7.24–579.5 μM and monomethylsulochrin at 9.0–721.9 μM, in a final volume of 100 µL per well. The viability of parasites was evaluated after treatment by counting the total number of live promastigotes, considering the flagellar motility, using Neubauer’s camera and optical light microscope ([Rottini et al., 2019]). This count was compared with the score of non-treated promastigote growth. This experiment was carried out in independent triplicate with each condition performed in triplicate. The results were expressed as parasite growth inhibitory concentration of 50% (IC50). Wells with medium and without parasites were used as blanks, and wells with parasites only incubated with medium were used as controls. […] Activity against intracellular amastigote was performed in 24-well plates, with coverslips, with peritoneal macrophages cultured (5 × 10^5 cells per well) and infected with promastigote forms of L. amazonensis using a ratio of 10:1 parasites per cell. After 6 h, the cells were washed three times with PBS to remove free parasites. […] For the light microscopy analysis, the coverslips with the infected and treated cells were then fixed with Bouin solution and stained with Giemsa. The IC50 values of all compounds tested were calculated from the total of intracellular amastigote from 100 cells. Parameters of infection analysis were performed according to [Silva-Silva et al. (2021a)].

[5] = test system: L. amazonensis intracellular amastigote; assay: Activity against intracellular amastigote in infected peritoneal macrophages; type: cell-based, Leishmania amazonensis; conditions: 24 h; for IC50: Leishmania amazonensis, Peritoneal macrophage, in Mus musculus, read-out: L. amazonensis Intracellular amastigote IC50
Method: The viability of parasites was evaluated after treatment by counting the total number of live promastigotes, considering the flagellar motility, using Neubauer’s camera and optical light microscope ([Rottini et al., 2019]). This count was compared with the score of non-treated promastigote growth. This experiment was carried out in independent triplicate with each condition performed in triplicate. […] Wells with medium and without parasites were used as blanks, and wells with parasites only incubated with medium were used as controls. […] After 6 h, the cells were washed three times with PBS to remove free parasites. […] For the light microscopy analysis, the coverslips with the infected and treated cells were then fixed with Bouin solution and stained with Giemsa. […] Parameters of infection analysis were performed according to [Silva-Silva et al. (2021a)].

Cytotoxicity assay (MTT) = type: cell-based; conditions: mouse
Method: The animals were stimulated by intraperitoneal inoculation of 3.0 ml of sodium thioglycolate at 3.0%. After 72 h of elicitation, the animals were euthanized with 10% ketamine (Syntec, São Paulo, BRA) and 2% xylazine (Syntec, São Paulo, BRA) according to the weight of each animal and, after death, the animal’s skin was retracted by incision and subsequent divulsion for peritoneum exposure. A total of 10.0 ml of sterile pH 7.2 phosphate-buffered saline (PBS) was inoculated, and a light manual massage was performed. The cells were then harvested from the peritoneum and dispensed in a sterile conical tube. The peritoneal lavage was centrifuged at 380g for 5 min, and cells were suspended in culture medium (RPMI 1640 medium supplemented with 10% FBS, penicillin [100 U/ml], and [100 μg/ml] streptomycin) and incubated at 37°C, 5% CO2 overnight ([Almeida-Souza et al., 2018]).
Wells without cells were used as blank, and wells with cells and 1% DMSO were used as control. After 24-h incubation period, cell viability was assessed by MTT. The cytotoxicity of 50% (CC50) was calculated following the method described elsewhere by [Oliveira et al. (2018)]. The selectivity index (SI) was obtained from the ratio of peritoneal macrophages CC50 and IC50.

bacteria = test system: bacteria; design: method as in Zhang et al., 2014; conditions: ref Zhang et al., 2014; cited from earlier work
[6] = test system: L. amazonensis promastigote forms; assay: Transmission electron microscopy, ultrastructural alterations; type: cell-based, Leishmania amazonensis; conditions: 18.04 µM (IC50), 24 h; p = 0.0016, 0.0016, 0.0480, 0.0079
Method: The transmission electron microscopy was performed to evaluate if monomethylsulochrin induced any ultrastructural alterations to the L. amazonensis promastigote forms. Parasites were treated with monomethylsulochrin with IC50 for 24 h and fixed with 2.5% glutaraldehyde in sodium cacodylate buff;er (0.1 M, pH 7.2) for overnight, then washed three times with 0.1 M sodium cacodylate buffer and postfixed in a solution containing 1% osmium tetroxide, 0.8% ferrocyanide, and 5 mM calcium chloride. 0.1 M sodium cacodylate buffer was used for washing, before being dehydrated in graded acetone and embedded in EPON 812 resin. Ultrathin sections were stained with 5% uranyl acetate aqueous solution and lead citrate (1.33% lead nitrate and 1.76% sodium citrate) and examined in a JEM-1011 transmission electron microscope (JEOL, Tokyo, Japan) at 80 kV ([Silva-Silva et al., 2021b]). The images acquired were used for quantification of the number of vacuoles and lipid corpuscles and area of vacuoles, lipid corpuscles, and mitochondria, using ImageJ software (NIH). Quantitative analysis was conducted with five untreated parasites and at least 10 treated parasites. The number of vacuoles and lipid corpuscles was expressed as mean ± standard deviation (SD), and the area of vacuoles, lipid corpuscles, and mitochondria were expressed as percentage of each parasite total area.

fungi = test system: fungi; design: method as in Zhang et al., 2014; conditions: ref Zhang et al., 2014; cited from earlier work
[7] = test system: L. amazonensis promastigote forms; assay: Flow cytometry with TMRE, mitochondrial membrane potential; type: cell-based, Leishmania amazonensis; conditions: 24 h, p = 0.0286
Method: Heat-killed parasites (60°C bath for 60 min) and untreated parasites were used as positive and negative controls, respectively. After incubation, parasites were centrifuged at 210g for 5 min at room temperature, washed in PBS, incubated with 300 μl of TMRE (50 nM) in the dark for 15 min, at room temperature, and submitted to flow cytometry through CytoFlex flow cytometer (Beckman Coulter Life Sciences, IN, USA). TMRE was excited by 488-nm blue laser, and its fluorescence was collected at 585/42 nm bandpass filter. CytExpert software version 2.1 (Beckman Coulter Life Sciences, IN, USA) was used for flow cytometry analyses ([Mondêgo-Oliveira et al., 2021]).

[8] = test system: L. donovani amastigotes, axenically cultured (cell free); design: method as in Martińez-Luis et al. (2012); conditions: isolated from endophytic Aspergillus sp. strain F1544; ref Martińez-Luis et al. (2012); cited from earlier work
Leishmania = test system: Leishmania; design: method as in Campos et al., 2017; conditions: ref Campos et al., 2017, cited from earlier work
[9] = peritoneal macrophages (thioglycolate-elicited), BALB/c peritoneal macrophages, 24 h, MTT, mean ± SD, read-out: Cytotoxicity CC50

CC(C)=CCC/C(C)=C/Cc1c(O)cc(O)c(C(=O)c2ccccc2)c1O [3-geranyl-2,4,6-trihydroxybenzophenone]
IC50 against promastigote forms of L. mexicana [1]: 4.05 µg/mL
IC50 against promastigote forms of L. infantum [2]: 15 µg/mL
IC50 against intracellular amastigote forms of L. infantum [3]: 0.7 µg/mL

C[C@@H]1[C@H](O)[C@@H](C)/C=C/C=C/C=C/C=C/C=C/C=C/C=C/[C@H](O[C@@H]2O[C@H](C)[C@@H](O)[C@H](N)[C@@H]2O)C[C@@H]2O[C@](O)(C[C@@H](O)C[C@@H](O)[C@H](O)CC[C@@H](O)C[C@@H](O)CC(=O)O[C@H]1C)C[C@H](O)[C@H]2C(=O)O [Amphotericin B, amphotericin B, reference compound]
SIpro (selectivity index = CC50 macrophages/IC50 promastigote forms) [4]: 312.96
Infection parameters (all) ([5]; 3 µM): significant reduction
SIama (selectivity index = CC50 macrophages/IC50 amastigote forms) [5]: 13.43
IC50 [5]: 0.629 ± 1.39 µM
CC50 at 24 h (Cytotoxicity assay (MTT); BALB/c): 8.45 ± 1.08 µM

COC(=O)c1cc(O)cc(OC)c1C(=O)c1c(O)cc(C)cc1OC [Monomethylsulochrin, monomethylsulochrin]
SIpro (selectivity index = CC50 macrophages/IC50 promastigote forms) [4]: 5.08
IC50 [4]: 18 ± 1.11 µM
Antibacterial activity (bacteria): weak antibacterial activity
Ultrastructural changes: number of vacuoles, vacuoles area, lipid corpuscles area, mitochondria area [6]: statistically significant changes
Parameters of infection (amastigote number in 100 cells, percentage of infected cells, mean of amastigotes per infected cell) ([5]; 6 µM, p = 0.0082, 0.0033, 0.0041): statistically significant reduction
SIama (selectivity index = CC50 macrophages/IC50 amastigote forms) [5]: 18.00
IC50 ([5]; infected BALB/c peritoneal macrophages, mean ± SD): 5.09 ± 1.06 µM
Antifungal activity (fungi): no antifungal activity
CC50 at 24 h (Cytotoxicity assay (MTT); [9]): 91.6 ± 1.28 µM
Change in Δψm ([7]; 18.04 µM): significant decrease
Decrease in the mitochondrial membrane potential ([7]; IC50 concentration): 25.9%

CC/C=C\[C@H](O)[C@H](O)C1=C(C)C(=O)[C@]2(O1)C(=O)N[C@@](OC)(C(=O)c1ccccc1)[C@@H]2O [Pseurotin A, pseurotin A]
IC50 [4]: > 500 µM
IC50 against axenically cultured (cell free) L. donovani amastigotes [8]: 5.8 µg/mL (≈ 13.4 µM)
CC50 at 24 h (Cytotoxicity assay (MTT); [9]): 654.4 ± 1.19 µM

anhydrocochlioquinone A [anhydrocochlioquinone A (ANDC-A)]
Leishmanicidal activity EC50 (Leishmania): 22.4 µg/mL
EC50 (Leishmania; read-out: Leishmanicidal activity EC50): 44 µM
